Experimental data reported in paper PMC13198932, “Pyrazolone-based ERO1 inhibitors in ERO1-driven triple-negative breast cancer and SEPN1-related myopathy: Structure–activity relationship and therapeutic potential” (Pharmacological research, 2025).
Where “and” joins values, the source holds several entries; their conditions need not be identical. Identical values can stand only once. Entries after “also recorded” stand apart in the source; their conditions may differ. Like-named read-outs stand apart in the source and are kept apart here.

What was measured:
[1] = tested on: WT and SEPN1 KD C2C12 cells; test: Super resolution microscopy (SIM) of ER volume and mitochondrial network; type: cell-based; conditions: for mitochondrial network (total branch length): SEPN1 KD cells; for ER volume: WT and SEPN1 KD cells
Source text: Structured illumination microscopy (SIM) was done on a Nikon SIM system with a 100 × 1.49 objective. Briefly, randomly selected cells were imaged at laser excitation of 405 nm (nuclei), 561 nm (ER), and 640 nm (mitochondria) with a 3D-SIM acquisition protocol. SIM images were quantified with ImageJ. After background normalization, the ER signals was segmentated to calculate the volume of the ER expressed as fraction of the cell. The segmentated mitochondrial signal was followed by the skeletonize function of ImageJ to perform mitochondria network analysis. We then applied the Analyze Skeleton 2D/3D plugin of ImageJ to measure each cell total branch length, expressed as μm.

[2] = target: T1, Human monoamine oxidase A (Mao-A) (Homo sapiens, UniProt P21397); test: Mao-A activity assay (commercial kit, p-tyramine, H2O2 fluorimetry); type: biochemical; conditions: 25 μM, 10 min incubation
T1 construct: purchased Sigma-Aldrich
T1 sequence (P21397 1-527): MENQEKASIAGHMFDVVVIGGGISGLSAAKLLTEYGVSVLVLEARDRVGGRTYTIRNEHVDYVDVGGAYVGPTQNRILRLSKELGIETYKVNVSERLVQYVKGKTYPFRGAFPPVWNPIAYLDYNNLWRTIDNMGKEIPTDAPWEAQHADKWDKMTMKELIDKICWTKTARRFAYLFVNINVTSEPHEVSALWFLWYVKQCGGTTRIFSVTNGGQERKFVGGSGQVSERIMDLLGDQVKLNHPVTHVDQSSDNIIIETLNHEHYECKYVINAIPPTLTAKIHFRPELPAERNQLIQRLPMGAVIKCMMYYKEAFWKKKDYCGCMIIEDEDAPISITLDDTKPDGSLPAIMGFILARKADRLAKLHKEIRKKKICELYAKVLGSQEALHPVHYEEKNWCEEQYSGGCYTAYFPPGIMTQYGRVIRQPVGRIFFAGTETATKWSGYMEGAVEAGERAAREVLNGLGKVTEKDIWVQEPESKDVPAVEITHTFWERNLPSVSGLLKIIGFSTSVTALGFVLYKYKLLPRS
Protocol: Mao-A activity was measured using a commercial assay kit according to the manufacturer’s instructions. Mao-A (0.837 μM) was incubated with vehicle (1 % DMSO), Clorgyline (50 μM), or various concentrations (1, 5, or 25 μM) of EN460, I2, I26, or I29 for 10 min. Mao-A catalyzes the oxidative deamination of p-tyramine, generating H2O2, which was quantified fluorimetrically (λex= 530; λem= 585 nm). Mao-A activity is presented as a percentage of the vehicle control.

recombinant PDI = recombinant PDI (Homo sapiens, UniProt P07237); test: PDI activity assay (insulin transhydrogenase / insulin turbidity assay); type: biochemical; conditions: 25 μM, 15 min incubation
Protocol: PDI activity was assessed using an insulin transhydrogenase assay. Bovine insulin (1 mg/mL) in sodium phosphate buffer, pH 7.0, containing 2 mM EDTA, was incubated with 1.4 μM recombinant PDI in the presence of vehicle (1 % DMSO) or various concentrations of isoquercetin (30 or 60 μM), EN460, I2, I26, or I29 (1, 5, or 25 μM) for 15 min. The turbidimetric assay of insulin disulfide reduction by PDI was initiated by adding 1 mM dithiothreitol, and the reaction was monitored at 650 nm for 80 min. PDI activity is presented as a percentage of the vehicle control.

recombinant ERO1A = target: T2, recombinant ERO1A (Mus musculus, UniProt Q8R180); test: AUR-based kinetic assay of ERO1A activity (recombinant ERO1A and PDIA1, HRP, Amplex Ultra Red); type: biochemical; conditions: for IC50: Table 1 in Fig. 3
T2 construct: GST-SMT3-mouse ERO1A (residues 43–464); GST-SMT3 (GST-SUMO) (N, cleaved yes); made in house; host or cells: E. coli Rosetta DE3 (Novagen)
T2 sequence (Q8R180 43-464): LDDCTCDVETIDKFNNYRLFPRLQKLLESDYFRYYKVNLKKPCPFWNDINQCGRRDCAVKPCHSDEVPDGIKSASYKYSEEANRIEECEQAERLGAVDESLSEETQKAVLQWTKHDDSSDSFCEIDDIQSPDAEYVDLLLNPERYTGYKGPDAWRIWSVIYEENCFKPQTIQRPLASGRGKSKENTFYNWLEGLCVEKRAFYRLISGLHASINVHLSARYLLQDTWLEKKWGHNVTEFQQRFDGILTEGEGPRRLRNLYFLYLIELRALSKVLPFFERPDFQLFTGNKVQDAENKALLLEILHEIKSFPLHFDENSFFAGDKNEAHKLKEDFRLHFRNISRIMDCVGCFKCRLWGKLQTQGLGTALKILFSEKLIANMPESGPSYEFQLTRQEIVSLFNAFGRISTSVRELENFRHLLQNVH
Source text: A GST-SMT3-mouse ERO1A (residues 43–464) and His-tagged PDIA1 [30] were expressed in the Rosetta DE3 bacteria (Novagen) and purified as described in [29, 31]. The GST-SMT3 and His tags were cleaved using Ulp protease (Z03691, GenScript) and thrombin protease (T6884, Merck), respectively. Successful tag removal was confirmed by a shift to a lower molecular weight for ERO1A on SDS-PAGE and by the absence of signal in anti-His immunoblotting for PDIA1.
The kinetic assay of ERO1A activity is based on a reaction involving recombinant ERO1A and PDIA1 proteins, horseradish peroxidase (Worthington), and 5 μM Amplex Ultra Red, as detailed in [29]. The effect of ERO1A inhibitors was evaluated by preincubating the compounds with ERO1A and measuring the inhibition of the linear reaction rate, and the corresponding IC50 values were determined using Prism 10 (GraphPad).
EN460 and 16 newly synthesized derivatives (I24–I40) (except for I31, which was not evaluated due to potential toxicity associated with its CN group) were evaluated for their ability to inhibit ERO1-dependent AUR fluorescence using a kinetic assay with recombinant ERO1 and PDIA1, as previously described (Figs. 3A and 3B). Raw kinetic data showing AUR fluorescence over time in reactions containing reduced ERO1, PDIA1 and EN460-derivatives are presented in Fig. Sup.1 A and Sup. 1B. Reaction rates, measured in presence or absence of varying concentrations of each compound, were used to calculate IC50 values, defined as the concentration required to inhibit 50 % of ERO1 enzymatic activity (Figs. 3C, 3D and Fig. Sup1C).

MDAMB231 cells = test: MTS assay of metabolic activity in MDAMB231 cells; type: cell-based, human; conditions: MDAMB231, dose-response, 24 h, 1 % FBS
Protocol: Six thousand cells (MDAMB231 and E0771) per well were seeded in 96-well plates and cultured in medium containing 1 % FBS. Cells were treated with varying concentrations of compounds and, after 24 h, incubated with MTS [3-(4,5-dimethylthiazol-2-yl)-5-(3-carboxymethoxyphenyl)-2-(4 sulfophenyl)2Htetrazolium]and PMS (phenazine methosulfate), following the instructions of the CellTiter 96® Aqueous Non-Radioactive Cell Proliferation Assay (Promega). Measurements were performed using a TECAN Infinite M200 plate reader with […] at 490 nm.

[3] = compounds dissolved in DMSO, preincubated with ERO1A, NA stands for not active, read-out: IC50
[4] = logarithm of IC50 in μM, compounds dissolved in DMSO, read-out: Log IC50 (confidence intervals) (converted)

Chain of recombinant PDI (P07237 18-508, species assumed): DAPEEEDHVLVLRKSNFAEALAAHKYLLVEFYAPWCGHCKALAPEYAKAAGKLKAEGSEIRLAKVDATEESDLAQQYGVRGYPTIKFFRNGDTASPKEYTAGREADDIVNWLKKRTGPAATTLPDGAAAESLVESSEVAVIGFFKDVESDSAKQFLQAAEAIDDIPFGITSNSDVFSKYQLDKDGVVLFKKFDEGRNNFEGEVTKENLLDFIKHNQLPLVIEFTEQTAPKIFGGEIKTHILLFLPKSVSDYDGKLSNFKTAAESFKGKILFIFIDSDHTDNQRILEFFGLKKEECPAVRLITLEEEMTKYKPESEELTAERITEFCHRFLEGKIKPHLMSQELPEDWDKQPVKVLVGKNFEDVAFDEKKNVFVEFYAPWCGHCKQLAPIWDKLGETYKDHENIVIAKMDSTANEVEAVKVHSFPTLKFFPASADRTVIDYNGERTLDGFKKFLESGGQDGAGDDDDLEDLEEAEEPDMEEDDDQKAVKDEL

Row | SMILES | mitochondrial network (total branch length) [1] | ER volume [1] | Mao-A activity (percentage of the vehicle control) [2] | PDI activity (percentage of the vehicle control) (recombinant PDI) | IC50 (recombinant ERO1A; [3]) | IC50 (recombinant ERO1A; [4]) [µM] | metabolic activity (MTS assay) (MDAMB231 cells) | IC50 / potency relative to EN460 (recombinant ERO1A; compared with EN460) | ERO1 inhibitory activity (in words) (recombinant ERO1A; compounds dissolved in DMSO)
1 | O=C(O)c1cc(N2N=C(C(F)(F)F)/C(=C\c3ccc(-c4ccccc4)o3)C2=O)ccc1Cl [EN460, reference compound] | selectively improved the mitochondrial network | did not change substantially | inhibited Mao-A activity | inhibited PDI activity | 6 µM | 5.89 | significantly reduced metabolic activity | – | –
2 | O=C1/C(=C/c2ccc(-c3ccccc3)o2)C(C(F)(F)F)=NN1c1ccccc1F [I29] | selectively improved the mitochondrial network | did not change substantially | inhibited Mao-A activity | inhibited PDI activity | 2.6 µM and ~2.6 µM | 2.63 | significantly reduced metabolic activity; also recorded: higher potency than EN460 | more than two times lower; also recorded: twofold lower; also recorded: approximately twofold higher activity; also recorded: twofold increase in potency | highest potency
